Source: publication PMC5218480 (PLoS ONE, 2017)

System: MV-4-11 cells
Assay: Gene expression microarray analysis (Affymetrix PrimeView) and GSEA
Format: cell-based, human
Parameters: RFU PODN (11730768_x_at) / Fold change /veh PODN (11730768_x_at) / RFU LINC00158 (11744669_a_at) / Fold change /veh LINC00158 (11744669_a_at) / RFU DUSP10 (11751237_a_at) / Fold change /veh DUSP10 (11751237_a_at) / RFU ID3 (11757404_x_at) / Fold change /veh ID3 (11757404_x_at) / RFU PLEKHG5 (11737974_s_at) / Fold change /veh PLEKHG5 (11737974_s_at) / RFU LRRC4B (11730491_at) / Fold change /veh LRRC4B (11730491_at) / RFU GIMAP4 (11747438_a_at) / Fold change /veh GIMAP4 (11747438_a_at) / RFU KRT8 (11758183_x_at) / Fold change /veh KRT8 (11758183_x_at) / RFU CNN1 (11734310_a_at) / Fold change /veh CNN1 (11734310_a_at) / RFU VPS37D (11726825_at) / Fold change /veh VPS37D (11726825_at) / RFU C10orf10 (11716522_x_at) / Fold change /veh C10orf10 (11716522_x_at) / RFU KIR2DL2 /// KIR2DL4 /// KIR2DL5A /// KIR2DL5B /// KIR2DS1 /// KIR2DS2 /// KIR2DS3 /// KIR2DS4 /// KIR3DL3 /// KIR3DL3 /// KIR3DS1 (11738374_at) / Fold change /veh KIR2DL2 /// KIR2DL4 /// KIR2DL5A /// KIR2DL5B /// KIR2DS1 /// KIR2DS2 /// KIR2DS3 /// KIR2DS4 /// KIR3DL3 /// KIR3DL3 /// KIR3DS1 (11738374_at) / RFU C1QL1 (11718748_at) / Fold change /veh C1QL1 (11718748_at) / RFU TMPRSS4 (11747572_a_at) / Fold change /veh TMPRSS4 (11747572_a_at) / RFU HAMP (11756126_x_at) / Fold change /veh HAMP (11756126_x_at) / RFU RNFT2 (11725882_a_at) / Fold change /veh RNFT2 (11725882_a_at) / RFU NR4A2 (11747474_a_at) / Fold change /veh NR4A2 (11747474_a_at) / RFU ABCC12 (11746883_a_at) / Fold change /veh ABCC12 (11746883_a_at) / RFU TMEM136 (11760407_x_at) / Fold change /veh TMEM136 (11760407_x_at) / RFU CLDN22 /// WWC2 (11732394_at) / Fold change /veh CLDN22 /// WWC2 (11732394_at) / RFU HLA-DPB1 (11760878_x_at) / Fold change /veh HLA-DPB1 (11760878_x_at) / RFU SPINT1 (11716480_a_at) / Fold change /veh SPINT1 (11716480_a_at) / RFU GAP43 (11754022_s_at) / Fold change /veh GAP43 (11754022_s_at) / RFU A4GNT (11735810_at) / Fold change /veh A4GNT (11735810_at) / RFU PRB3 (11715151_x_at) / Fold change /veh PRB3 (11715151_x_at) / RFU TUBB4B (11761932_at) / Fold change /veh TUBB4B (11761932_at) / RFU CAPN14 (11732068_a_at) / Fold change /veh CAPN14 (11732068_a_at) / RFU TMCC2 (11721928_a_at) / Fold change /veh TMCC2 (11721928_a_at) / RFU IRGQ (11745062_a_at) / Fold change /veh IRGQ (11745062_a_at) / RFU FAM174B (11720279_a_at) / Fold change /veh FAM174B (11720279_a_at) / RFU TMPRSS4 (11748680_a_at) / Fold change /veh TMPRSS4 (11748680_a_at) / RFU FAM212B (11763350_a_at) / Fold change /veh FAM212B (11763350_a_at) / RFU PLEKHG5 (11743358_a_at) / Fold change /veh PLEKHG5 (11743358_a_at) / RFU ZSCAN30 (11745921_a_at) / Fold change /veh ZSCAN30 (11745921_a_at) / RFU CMKLR1 (11741424_a_at) / Fold change /veh CMKLR1 (11741424_a_at) / RFU LOC101060620 /// MAPK8IP1 (11723275_at) / Fold change /veh LOC101060620 /// MAPK8IP1 (11723275_at) / RFU SPTSSB (11747773_x_at) / Fold change /veh SPTSSB (11747773_x_at) / RFU PRSS12 (11739890_at) / Fold change /veh PRSS12 (11739890_at) / RFU BIN1 (11741810_x_at) / Fold change /veh BIN1 (11741810_x_at) / RFU WNT11 (11732464_a_at) / Fold change /veh WNT11 (11732464_a_at) / RFU C10orf10 (11716521_a_at) / Fold change /veh C10orf10 (11716521_a_at) / RFU C5orf56 (11738089_at) / Fold change /veh C5orf56 (11738089_at) / RFU CYB561 (11721691_x_at) / Fold change /veh CYB561 (11721691_x_at) / RFU ANKRD19P (11752326_a_at) / Fold change /veh ANKRD19P (11752326_a_at) / RFU OR2T12 /// OR2T33 /// OR2T8 (11738714_s_at) / Fold change /veh OR2T12 /// OR2T33 /// OR2T8 (11738714_s_at) / RFU VCAN (11748164_a_at) / Fold change /veh VCAN (11748164_a_at) / RFU JSRP1 (11732532_at) / Fold change /veh JSRP1 (11732532_at) / RFU KRTAP10-11 (11738290_x_at) / Fold change /veh KRTAP10-11 (11738290_x_at) / RFU MYO3A (11730013_a_at) / Fold change /veh MYO3A (11730013_a_at) / RFU EBF3 (11725865_a_at) / Fold change /veh EBF3 (11725865_a_at) / RFU CAMK2N1 (11719241_x_at) / Fold change /veh CAMK2N1 (11719241_x_at) / RFU C5orf56 (11738088_a_at) / Fold change /veh C5orf56 (11738088_a_at) / RFU OLFML3 (11715873_a_at) / Fold change /veh OLFML3 (11715873_a_at) / RFU LOC100653217 /// NTM (11731650_a_at) / Fold change /veh LOC100653217 /// NTM (11731650_a_at) / RFU MAPK11 (11762145_a_at) / Fold change /veh MAPK11 (11762145_a_at) / RFU FIZ1 (11724087_x_at) / Fold change /veh FIZ1 (11724087_x_at) / RFU OASL (11726364_x_at) / Fold change /veh OASL (11726364_x_at) / RFU SOX15 (11748057_x_at) / Fold change /veh SOX15 (11748057_x_at) / RFU CD79A (11719716_a_at) / Fold change /veh CD79A (11719716_a_at) / RFU HIST1H1D (11736915_at) / Fold change /veh HIST1H1D (11736915_at) / RFU CASKIN2 (11723855_a_at) / Fold change /veh CASKIN2 (11723855_a_at) / RFU LOC730098 (11760151_x_at) / Fold change /veh LOC730098 (11760151_x_at) / RFU OR4N2 (11742367_at) / Fold change /veh OR4N2 (11742367_at) / RFU PRRT2 (11749266_a_at) / Fold change /veh PRRT2 (11749266_a_at) / RFU SNX32 (11753110_a_at) / Fold change /veh SNX32 (11753110_a_at) / RFU CDHR5 (11726645_a_at) / Fold change /veh CDHR5 (11726645_a_at) / RFU RCAN1 (11760418_a_at) / Fold change /veh RCAN1 (11760418_a_at) / RFU FAM167A (11723789_a_at) / Fold change /veh FAM167A (11723789_a_at) / RFU FAM26E (11764081_at) / Fold change /veh FAM26E (11764081_at) / RFU ISYNA1 (11749810_s_at) / Fold change /veh ISYNA1 (11749810_s_at) / RFU ACY1 (11761880_at) / Fold change /veh ACY1 (11761880_at) / RFU 11764098_at / Fold change /veh 11764098_at / RFU SAMD14 (11745864_x_at) / Fold change /veh SAMD14 (11745864_x_at) / RFU NPB (11741838_a_at) / Fold change /veh NPB (11741838_a_at) / RFU TMPRSS6 (11731388_a_at) / Fold change /veh TMPRSS6 (11731388_a_at) / RFU KRTAP10-2 (11738614_at) / Fold change /veh KRTAP10-2 (11738614_at) / RFU ARHGAP8 /// PRR5-ARHGAP8 (11727945_x_at) / Fold change /veh ARHGAP8 /// PRR5-ARHGAP8 (11727945_x_at) / RFU KRTAP5-7 /// NADSYN1 (11734609_at) / Fold change /veh KRTAP5-7 /// NADSYN1 (11734609_at) / RFU RASL12 (11751679_a_at) / Fold change /veh RASL12 (11751679_a_at) / RFU CDKN2B (11736163_a_at) / Fold change /veh CDKN2B (11736163_a_at) / RFU PRF1 (11729649_at) / Fold change /veh PRF1 (11729649_at) / RFU, ZNF638 /// ZNF638-IT1 / Fold change vs veh, ZNF638 /// ZNF638-IT1 / RFU, PANK3 / Fold change vs veh, PANK3 / RFU, SH3YL1 / Fold change vs veh, SH3YL1 / RFU, ZEB2 / Fold change vs veh, ZEB2 / RFU, NRIP1 / Fold change vs veh, NRIP1 / RFU, PTTG1IP / Fold change vs veh, PTTG1IP / RFU, CAPN2 / Fold change vs veh, CAPN2 / RFU, MED14 / Fold change vs veh, MED14 / RFU, SNORA58 / Fold change vs veh, SNORA58 / RFU, C1orf63 / Fold change vs veh, C1orf63 / RFU, LRRFIP1 / Fold change vs veh, LRRFIP1 / RFU, NDUFAF7 / Fold change vs veh, NDUFAF7 / RFU, SLC12A2 / Fold change vs veh, SLC12A2 / RFU, IBTK / Fold change vs veh, IBTK / RFU, ESF1 / Fold change vs veh, ESF1 / Fold change vs veh, TMEM50B / RFU, TAOK1 / Fold change vs veh, TAOK1 / RFU, ACBD3 / Fold change vs veh, ACBD3 / RFU, TMA16 / Fold change vs veh, TMA16 / RFU, RWDD3 / Fold change vs veh, RWDD3 / RFU, BCAT1 / Fold change vs veh, BCAT1 / RFU, EDEM3 / Fold change vs veh, EDEM3 / RFU, TMEM33 / Fold change vs veh, TMEM33 / RFU, WDR75 / Fold change vs veh, WDR75 / RFU, AHCTF1 / Fold change vs veh, AHCTF1 / RFU, TFRC / Fold change vs veh, TFRC / RFU, ZDHHC17 / Fold change vs veh, ZDHHC17 / RFU, NOM1 / Fold change vs veh, NOM1 / RFU, ARL8B / Fold change vs veh, ARL8B / RFU, ZBTB11 / Fold change vs veh, ZBTB11 / RFU, TAMM41 / Fold change vs veh, TAMM41 / RFU, KIAA1704 /// LOC100996395 / Fold change vs veh, KIAA1704 /// LOC100996395 / RFU, ING1 / Fold change vs veh, ING1 / RFU, TRMT61B / Fold change vs veh, TRMT61B / RFU, FUBP3 / Fold change vs veh, FUBP3 / RFU, TP53 / Fold change vs veh, TP53 / RFU, TNKS2 / Fold change vs veh, TNKS2 / RFU, ZFP14 / Fold change vs veh, ZFP14 / RFU, ACTR2 / Fold change vs veh, ACTR2 / RFU, PPP3R1 / Fold change vs veh, PPP3R1 / RFU, PIK3R1 / Fold change vs veh, PIK3R1 / RFU, HNRNPA1 / Fold change vs veh, HNRNPA1 / RFU, RNF170 / Fold change vs veh, RNF170 / RFU, ZNF28 / Fold change vs veh, ZNF28 / RFU, RNGTT / Fold change vs veh, RNGTT / RFU, OGT / Fold change vs veh, OGT / RFU, BRD1 / Fold change vs veh, BRD1 / RFU, MARS / Fold change vs veh, MARS / RFU, ZNF655 / Fold change vs veh, ZNF655 / RFU, FAHD1 / Fold change vs veh, FAHD1 / RFU, BDP1 / Fold change vs veh, BDP1 / RFU, LRRCC1 / Fold change vs veh, LRRCC1 / RFU, ARID1A / Fold change vs veh, ARID1A / RFU, ZNF146 / Fold change vs veh, ZNF146 / RFU, ZNF330 / Fold change vs veh, ZNF330 / RFU, GPN3 / Fold change vs veh, GPN3 / RFU, C9orf123 / Fold change vs veh, C9orf123 / RFU, N4BP2L2 / Fold change vs veh, N4BP2L2 / RFU, ARFIP1 / Fold change vs veh, ARFIP1 / RFU, FAM179B / Fold change vs veh, FAM179B / RFU, BCL10 / Fold change vs veh, BCL10 / RFU, UHRF1BP1L / Fold change vs veh, UHRF1BP1L / RFU, BET1 / Fold change vs veh, BET1 / RFU, CNOT2 / Fold change vs veh, CNOT2 / RFU, ZNF268 / Fold change vs veh, ZNF268 / Fold change vs veh, ZNF507 / RFU, DGCR2 / Fold change vs veh, DGCR2 / RFU, WDSUB1 / Fold change vs veh, WDSUB1 / Fold change vs veh, HSP90B1 /// MIR3652 / RFU, ADSS / Fold change vs veh, ADSS / RFU, GK / Fold change vs veh, GK / RFU, ZNF148 / Fold change vs veh, ZNF148 / RFU, TAF9 / Fold change vs veh, TAF9 / RFU, SLC1A5 / Fold change vs veh, SLC1A5 / RFU, SLMO2 / Fold change vs veh, SLMO2 / RFU, ABCC4 / Fold change vs veh, ABCC4 / RFU, LOC101060439 /// RAP1B / Fold change vs veh, LOC101060439 /// RAP1B / RFU, RFX7 / Fold change vs veh, RFX7 / RFU, GTPBP10 / Fold change vs veh, GTPBP10 / RFU, CNEP1R1 / Fold change vs veh, CNEP1R1 / RFU, BIVM-ERCC5 /// ERCC5 / Fold change vs veh, BIVM-ERCC5 /// ERCC5 / RFU, ILF3 / Fold change vs veh, ILF3 / RFU 11762660_at / Fold change /veh 11762660_at / RFU VCAN (11757783_s_at) / Fold change /veh VCAN (11757783_s_at) / RFU DDX43 (11728927_at) / Fold change /veh DDX43 (11728927_at) / RFU KRT8 (11758188_x_at) / Fold change /veh KRT8 (11758188_x_at) / RFU NKD1 (11759106_at) / Fold change /veh NKD1 (11759106_at) / RFU SRD5A1 (11742802_a_at) / Fold change /veh SRD5A1 (11742802_a_at) / RFU TPSAB1 /// TPSB2 (11721975_s_at) / Fold change /veh TPSAB1 /// TPSB2 (11721975_s_at) / RFU GSTM3 (11746129_a_at) / Fold change /veh GSTM3 (11746129_a_at) / RFU IL23R (11737362_x_at) / Fold change /veh IL23R (11737362_x_at) / RFU TMEM51 (11727254_a_at) / Fold change /veh TMEM51 (11727254_a_at) / RFU PIWIL2 (11732686_x_at) / Fold change /veh PIWIL2 (11732686_x_at) / RFU ORM1 (11744905_x_at) / Fold change /veh ORM1 (11744905_x_at) / RFU CCDC152 (11743942_at) / Fold change /veh CCDC152 (11743942_at) / RFU ECM1 (11717891_a_at) / Fold change /veh ECM1 (11717891_a_at) / RFU IL23R (11748794_a_at) / Fold change /veh IL23R (11748794_a_at) / RFU TNFAIP8L3 (11732012_x_at) / Fold change /veh TNFAIP8L3 (11732012_x_at) / RFU MBOAT4 (11741988_at) / Fold change /veh MBOAT4 (11741988_at) / RFU 11764193_at / Fold change /veh 11764193_at / RFU TMEM53 (11763286_at) / Fold change /veh TMEM53 (11763286_at) / RFU MAGEB2 (11727129_at) / Fold change /veh MAGEB2 (11727129_at) / RFU TMEM200A (11744735_a_at) / Fold change /veh TMEM200A (11744735_a_at) / RFU CCDC152 (11751479_a_at) / Fold change /veh CCDC152 (11751479_a_at) / RFU FAM211A (11726209_a_at) / Fold change /veh FAM211A (11726209_a_at) / RFU RGS16 (11746705_a_at) / Fold change /veh RGS16 (11746705_a_at) / RFU VCAN (11755009_s_at) / Fold change /veh VCAN (11755009_s_at) / RFU RHOB (11743442_s_at) / Fold change /veh RHOB (11743442_s_at) / RFU RGS16 (11720943_a_at) / Fold change /veh RGS16 (11720943_a_at) / RFU RGS16 (11720944_at) / Fold change /veh RGS16 (11720944_at) / RFU, VPS4B / Fold change vs veh, VPS4B / RFU, CREB1 / Fold change vs veh, CREB1 / RFU, DNAJC13 / Fold change vs veh, DNAJC13 / RFU, GNAQ / Fold change vs veh, GNAQ / RFU, CDK5R1 / Fold change vs veh, CDK5R1 / RFU, ZRANB3 / Fold change vs veh, ZRANB3 / RFU, CUL4A / Fold change vs veh, CUL4A / RFU, CCNY / Fold change vs veh, CCNY / RFU, UFL1 / Fold change vs veh, UFL1 / RFU, COG3 / Fold change vs veh, COG3 / RFU, DIAPH2 / Fold change vs veh, DIAPH2 / RFU, SKA2 / Fold change vs veh, SKA2 / RFU, AFF3 / Fold change vs veh, AFF3 / RFU, LMF1 / Fold change vs veh, LMF1 / RFU, IPO11 / Fold change vs veh, IPO11 / RFU, DFFB / Fold change vs veh, DFFB / RFU, FOXP1 / Fold change vs veh, FOXP1 / RFU, CARD8 / Fold change vs veh, CARD8 / RFU, STRN3 / Fold change vs veh, STRN3 / RFU, ADK / Fold change vs veh, ADK / RFU, RASSF2 / Fold change vs veh, RASSF2 / RFU, WIPF1 / Fold change vs veh, WIPF1 / RFU, LARP1B / Fold change vs veh, LARP1B / RFU, RASA1 / Fold change vs veh, RASA1 / RFU, RB1 / Fold change vs veh, RB1 / RFU, PPFIA1 / Fold change vs veh, PPFIA1 / RFU, MAT2A / Fold change vs veh, MAT2A / RFU, CCT5 / Fold change vs veh, CCT5 / RFU, WDR92 / Fold change vs veh, WDR92 / RFU, CUX1 / Fold change vs veh, CUX1 / RFU, TTC7A / Fold change vs veh, TTC7A / RFU, TMEM135 / Fold change vs veh, TMEM135 / RFU, DEPTOR / Fold change vs veh, DEPTOR / RFU, CPM / Fold change vs veh, CPM / RFU, DNAJB6 / Fold change vs veh, DNAJB6 / RFU, CACNA2D3 / Fold change vs veh, CACNA2D3 / RFU, DTX4 / Fold change vs veh, DTX4 / RFU, TFCP2 / Fold change vs veh, TFCP2 / RFU, GMCL1 /// GMCL1P1 / Fold change vs veh, GMCL1 /// GMCL1P1 / RFU, AEBP2 / Fold change vs veh, AEBP2 / RFU, SNHG1 /// SNORD22 /// SNORD25 /// SNORD26 /// SNORD27 /// SNORD28 /// SNORD29 /// SNORD31 / Fold change vs veh, SNHG1 /// SNORD22 /// SNORD25 /// SNORD26 /// SNORD27 /// SNORD28 /// SNORD29 /// SNORD31 / Fold change (Aza/veh), C12orf56 (ProbeSet 11735607_a_at) / Fold change (ACY-1035/veh), C12orf56 (ProbeSet 11735607_a_at) / Fold change (Aza/veh), FGFR1OP (ProbeSet 11751329_s_at) / Fold change (ACY-1035/veh), FGFR1OP (ProbeSet 11751329_s_at) / Fold change (Aza/veh), VPS36 (ProbeSet 11739960_a_at) / Fold change (ACY-1035/veh), VPS36 (ProbeSet 11739960_a_at) / RFU SYPL1 (11715823_x_at) / Fold change /veh SYPL1 (11715823_x_at) / RFU IGFBP7 (11715501_s_at) / Fold change /veh IGFBP7 (11715501_s_at) / RFU REEP3 (11722064_at) / Fold change /veh REEP3 (11722064_at) / RFU IGLL1 (11728026_x_at) / Fold change /veh IGLL1 (11728026_x_at): dose or concentration left out as unconfirmed
Settings: MV-4-11 cells, 48 hours

## Nc1ccc(-c2cccs2)cc1NC(=O)c1ccc2c(c1)cc(C1CC1)n2CCN1CCOCC1 [ACY-1035]
  Fold change /veh LOC100653217 /// NTM (11731650_a_at): 0.99
